{
  "source": "patent US20060040951A1",
  "about": "“Use of 5-ht2 receptor antagonists for the treatment of sleep disorders” (Merck Patent GmbH, priority 2002, published 2006)",
  "key": {"[1]": {"conditions": "cited from earlier work"}, "rats [2]": {"tested_on": "rats", "test": "Example B: EEG sleep-stage recording of non-anaesthetised rats over 12 hours, crossover study versus vehicle", "type": "in vivo, rat", "protocol": "In order to measure the brain waves, EEG electrodes are implanted into the brain of anaesthetised rats. After a recovery time of 15 days, these electrodes are connected to an amplifier via a flexible cable, and the brain waves of the non-anaesthetised animals are recorded over 12 hours. (3-Cyano-1H-indol-7-yl)-[4-(4-fluorophenethyl)piperazin-1-yl]methanone is dissolved in advance in a concentration of 0.1 ml/100 g of peanut oil. This solution (compound) or, for comparison, merely the solvent (vehicle) is administered orally to the test animals in a dose of 3 mg/kg. From the filtered and amplified brain-wave signals, the sleep stages are evaluated via Fourier spectral analysis including certain criteria. The REM and non-REM sleep stages can be identified with reference to the patterns. The experimental results are shown in Tables 1 (effect of the substance) and 2 (significances of the measurement values). It becomes clear that (3-cyano-1H-indol-7-yl)-[4-(4-fluorophenethyl)piperazin-1-yl]methanone results in a significant extension both of non-REM sleep and of REM sleep and that these extensions are significant.\nThis experiment is a crossover study. This means that one and the same animal receives either first solvent (vehicle) and then, after a waiting time of one week, the test substance (3-cyano-1H-indol-7-yl)-[4-(4-fluorophenethyl)piperazin-1-yl]methanone (compound), or the administration is carried out in the reverse sequence.\nThe measured values after vehicle or compound administration are compared with one another using the statistical method of analysis of variance (ANOVA). The p value is a statistical measure of the probability that a difference occurs by chance between the measurement values or is caused by the substance administration. According to international standards, a p value of below 0.05 is regarded as “significant”.\nIt is clear from FIG. 1 that in particular stages 3 and 4, which are regarded as slow-wave sleep, are extended in non-REM sleep. […] The term delta power or delta waves denotes the “slow” waves recorded in the EEG which are characteristic of slow-wave sleep stages. For each rat, the hour average after solvent (vehicle) treatment was firstly determined and subtracted from the value after substance treatment."}, "rats [3]": {"tested_on": "rats", "test": "Brain-wave (EEG) recording of rats over 6 hours during the dark phase", "type": "in vivo, rat"}, "[4]": {"conditions": "rats, 3 mg/kg orally in peanut oil, 12 h recording, average ± standard error"}, "[5]": {"conditions": "rats, 3 mg/kg orally, 12 h recording, average ± standard error"}, "[6]": {"conditions": "3 mg/kg per os, 6 h recording during dark phase"}},
  "data": [
    {"compound": "O=C1CCC(N2C(=O)c3ccccc3C2=O)C(=O)N1", "note": "(centres unmarked) [thalidomide]", "values": [
      {"measurement": "effect on both sleep phases", "setting": "[1]; known sleeping drug", "result": "extends both sleep phases"}
    ]},
    {"compound": "N#Cc1c[nH]c2c(C(=O)N3CCN(CCc4ccc(F)cc4)CC3)cccc12", "note": "[(3-cyano-1H-indol-7-yl)-[4-(4-fluorophenethyl)piperazin-1-yl]methanone]", "values": [
      {"measurement": "relative delta power in the rat EEG, difference from the control level", "setting": "rats [2]; FIG. 1, as a function of the time of day", "result": "significantly increased overall"},
      {"measurement": "NREM sleep Total Time", "setting": "rats [2]; [4]", "result": "232.8 ± 13.1", "unit": "min"},
      {"measurement": "REM sleep Total Time", "setting": "rats [2]; [4]", "result": "45.3 ± 3.8", "unit": "min"},
      {"measurement": "Wakefulness Total Time", "setting": "rats [2]; [4]", "result": "440.6 ± 15.1", "unit": "min"},
      {"measurement": "Inter-REM interval", "setting": "rats [2]; [5]", "result": "28.8 ± 3.0", "unit": "min"},
      {"measurement": "NREM sleep Episode Duration", "setting": "rats [2]; [5]", "result": "184.8 ± 9.5", "unit": "s"},
      {"measurement": "REM Latency", "setting": "rats [2]; [5]", "result": "5.2 ± 0.3", "unit": "min"},
      {"measurement": "REM sleep Episode Duration", "setting": "rats [2]; [5]", "result": "93.1 ± 6.6", "unit": "s"},
      {"measurement": "Wakefulness Episode Duration", "setting": "rats [2]; [5]", "result": "422.5 ± 29.3", "unit": "s"},
      {"measurement": "average increase in non-REM sleep", "setting": "rats [3]; [6]", "result": "about 4 min/h"},
      {"measurement": "maximum increase in non-REM sleep", "setting": "rats [3]; [6]", "result": "about 5 minutes per hour"},
      {"measurement": "extension of REM sleep, average", "setting": "rats [3]; 6 h dark phase", "result": 0.8, "unit": "min/h"},
      {"measurement": "extension of REM sleep, maximum", "setting": "rats [3]; 6 h dark phase", "result": 2, "unit": "min/h"},
      {"measurement": "what the change in REM sleep results from", "setting": "rats [3]; 6 h dark phase", "result": "increase in the number of REM episodes"}
    ]},
    {"compound": "Cc1nnc2n1-c1ccc(Cl)cc1C(c1ccccc1Cl)=NC2", "note": "[triazolam, reference compound]", "values": [
      {"measurement": "what the change in REM sleep results from", "setting": "rats [3]; 6 h dark phase", "result": "reduction in the duration of the individual REM phases"},
      {"measurement": "extension of non-REM sleep", "setting": "rats [3]; dose 0.1 mg/kg, 6 h dark phase", "result": 2, "unit": "min/h"},
      {"measurement": "extension of non-REM sleep (maximum effect)", "setting": "rats [3]; dose 0.4 mg/kg, 6 h dark phase", "result": 6.5, "unit": "min/h"}
    ]},
    {"compound": "CCc1nn(CCCN2CCN(c3cccc(Cl)c3)CC2)c(=O)n1CCOc1ccccc1", "note": "[nefazodone]", "values": [
      {"measurement": "effect on REM sleep", "setting": "[1]; literature report", "result": "extend REM sleep"},
      {"measurement": "effect on slow-wave phases 3 and 4 of non-REM sleep", "setting": "[1]; literature report", "result": "remain unchanged"}
    ]}
  ]
}
